Reference: patent US5800838A, “Composition that inhibits or destroys at least one unicellular living organism containing fluorine F- and Lithium li+” (priority 1987, dated 1998)
In brackets after ≈: the same amount, converted by molar mass. Read-outs that look alike come from different tables or passages of the source.

Legend:
Haemophilus influenzae [1] = assay: Antibiotic activity of ampicillin (Example 24); format: cell-based; settings: read-out: minimal inhibitory concentration
Escherichia coli [2] = assay: Antibiotic activity of ampicillin (Example 24); format: cell-based
Pseudomonas aeruginosa [3] = assay: Antibiotic activity of ampicillin (Example 24); format: cell-based; settings: read-out: minimal inhibitory concentration
Streptococcus faecalis = assay: Antibiotic activity of ampicillin (Example 24); format: cell-based; settings: Enterococcus faecalis, read-out: minimal inhibitory concentration
Group C streptococcus [4] = assay: Antibiotic activity of ampicillin (Example 24); format: cell-based; settings: read-out: minimal inhibitory concentration
Entrococcus faecium = assay: Antibiotic activity of ampicillin (Example 24); format: cell-based; settings: resistant to ampicillin, read-out: minimal inhibitory concentration
Staphylococcus aureus [5] = assay: Antibiotic activity of ampicillin (Example 24); format: cell-based; settings: read-out: minimal inhibitory concentration
Staphylococcus aureus [6] = assay: microbe, parasite or virus in culture; settings: read-out: MIC alone (MIC A, MIC B)
Experimental: (§1) Concentration series of two antibiotic substances A and B are prepared in the geometric ratio of 2 are combined and the following values are determined:
(§2) MIC B/A = minimal inhibiting concentration B in presence of A [formula]
(§3) The MIC of the bacteriostatic effect is read when the percentage of surviving strains is less or equal to 1%.
(§4) The combination of the substances A and B is synergistic as regards the bacteriostatic effect when FIC≤0,75. The combination is additive when FIC=1. The combination is insensible when 1<FIC≤2. The combination is antagonistic when FIC>2.
(§5) Substance A was tetracycline (concentration serie from 0,25 to 128 mg/l)
(§6) Substance B was Fli (concentration serie from 0,25 to 16 mg/l)
(§7) The strain was staphylococcus aureus (wild-type hospital resistant strain)

Haemophilus influenzae [7] = system: Haemophilus influenzae
Staphylococcus aureus [8] = settings: A (tetracycline) in presence of B (Fli)
Experimental: as §1, §2, §3, §4, §5, §6, §7

Klebsiella pneumoniae [9] = assay: microbe, parasite or virus in culture
Experimental: The MIC of tetracycline was studied on Klebsiella pneumoniae (wild-type hospital strain).
The trial was conducted with tetracycline alone, tetracycline in presence of FNa and tetracycline in presence of Fli.

Klebsiella pneumoniae [10] = system: Klebsiella pneumoniae
Staphylococcus aureus [11] = assay: Activity on wild-type hospital strains responsible for skin infections; format: cell-based
Group C streptococcus [12] = assay: as above; format: cell-based
Escherichia coli [13] = assay: as above; format: cell-based
streptococcus group F = assay: Phenotype of resistant wild-type hospital strains with activated antibiotics (Example 35); format: cell-based; settings: Fli 4 ppm
Experimental: Strains Gram+ and Gram- (wild-type hospital) having a resistant phenotype vis a vis standard firstly and secondly used antibiotherapy were experimented on activated antibiotics.
250 experiments were conducted on the following strains: Streptococcus group B, C, D, F, G, Staphylococcus aureus, Staphylococcus epidermitis, Klebsiella pneumoniae, Klebsiella spirochete, Klebsiella oxytoca, Proteus mirabilis, Serratia marcescens, Escherichia coli, Citrobacter freundii, Enterobacter cloacae, Enterobacter calcoaceticus, Salmonella spirochete, Salmonella typhimurium, Pseudomonas aeruginosa, Haemophilus influenzae, Haemophilus sphrophilus, Acinetobacter calcoaeticus. […]

[14] = system: Escherichia coli ATCC 25922; assay: Antibiotic activity of patient's blood after administration, inhibition holes methodology; format: in vivo
From the text: The efficiency in vivo of the administration of doxycycline in presence of Fli has been measured and compared with the efficiency of the administration of doxycycline alone.
The antibiotic composition (doxycycline alone or with Fli) has been administered to a healthy patient, and the antibiotic activity of the patient's blood has been determined before the first administration, the day of the administration, and three days later. The delay of three days is necessary because of the low solubility of Fli: the pertinent concentration of Fli is only obtained after the end of the second day after its administration.
The patient had taken the antibiotic during the three days, 2 capsules of 250 mg each day at 8 a.m. A blood sample was taken 3 hours after each administration.
And the antibiotic activity was twice determined by a microbiological titration using the inhibition holes methodology on a standard strain ATCC 25922 of Escherichia coli.
Holes of […] diameter were made on a Mueller Hinton agar and 100 μl of plasma were injected in each hole. The agar was then seeded with an inoculum of Escherichia coli of […].
After an incubation of 24 hours at 37° C., the diameters around each holes (in which the strain was killed) were read.
In the first trial, the capsules of 250 mg were constituted of 110 mg of doxycycline chlorhydrate and of lactose.
The second trial was conducted similarly with gelules of 250 mg constituted of 110 mg of doxycycline, 53 mg of Fli and lactose.

Pseudomonas aeruginosa [15] = assay: MIC of doxycycline (Example 32); format: cell-based; settings: alone, or with FNa 8 ppm / Fli 8 ppm
From the text: The MIC of doxycycline was studied on pseudomonas aeruginosa (wild-type hospital strain) in the same conditions as for example 31.

[16] = LiF 0.8 mg/l, multiresistant strains often producing beta-lactamase
[17] = alone, multiresistant strains often producing beta-lactamase
[18] = read-out: 100% inhibitory concentration, alone

CC1(C)S[C@@H]2[C@H](NC(=O)[C@H](N)c3ccccc3)C(=O)N2[C@H]1C(=O)O [AMPICILLIN, ampicillin]
MIC (Haemophilus influenzae [1]; [16]): 32 µg/mL (≈ 91.6 µM) | MIC (Haemophilus influenzae [1]; LiF 5 mg/l, resistant to ampicillin, 5 wild-type strains): 32 µg/mL (≈ 91.6 µM) | MIC (Haemophilus influenzae [1]; [17]): > 128 µg/mL | MIC (Haemophilus influenzae [1]; alone, resistant to ampicillin, 5 wild-type strains): > 128 µg/mL | MIC (Escherichia coli [2]; ATCC25, LiF 1 mg/l, ATCC 25 922, read-out: minimal inhibitory concentration): 2 µg/mL (≈ 5.72 µM) | MIC (Escherichia coli [2]; ATCC25, alone, ATCC 25 922, read-out: minimal inhibitory concentration): 4 µg/mL (≈ 11.4 µM) | MIC (Escherichia coli [2]; LiF 0.8 mg/l, multiresistant strains often producing beta-lactamase, read-out: minimal inhibitory concentration): 8 µg/mL (≈ 22.9 µM) | MIC (Escherichia coli [2]; LiF 5 mg/l, 10 wild-type strains, read-out: minimal inhibitory concentration): 1 to 4 µg/mL (≈ 2.86 to 11.4 µM) | MIC (Escherichia coli [2]; LiF 5 mg/l, resistant Escherichia coli, read-out: minimal inhibitory concentration): 8 µg/mL (≈ 22.9 µM) | MIC (Escherichia coli [2]; alone, 10 wild-type strains, read-out: minimal inhibitory concentration): 2 to 8 µg/mL (≈ 5.72 to 22.9 µM) | MIC (Escherichia coli [2]; alone, multiresistant strains often producing beta-lactamase, read-out: minimal inhibitory concentration): 64 µg/mL (≈ 183 µM) | MIC (Escherichia coli [2]; alone, resistant Escherichia coli, read-out: minimal inhibitory concentration): 64 µg/mL (≈ 183 µM) | MIC (Pseudomonas aeruginosa [3]; [16]): 4 to 8 µg/mL (≈ 11.4 to 22.9 µM) | MIC (Pseudomonas aeruginosa [3]; LiF 5 mg/l): 4 to 8 µg/mL (≈ 11.4 to 22.9 µM) | MIC (Pseudomonas aeruginosa [3]; [17]): 16 to 32 µg/mL (≈ 45.8 to 91.6 µM) | MIC (Pseudomonas aeruginosa [3]; alone): 16 to 32 µg/mL (≈ 45.8 to 91.6 µM) | MIC (Streptococcus faecalis; ATCC25, LiF 5 mg/l, ATCC 25 212): 4 µg/mL (≈ 11.4 µM) | MIC (Streptococcus faecalis; ATCC25, alone, ATCC 25 212): 8 µg/mL (≈ 22.9 µM) | MIC (Streptococcus faecalis; LiF 5 mg/l, 10 wild-type strains): 2 µg/mL (≈ 5.72 µM) | MIC (Streptococcus faecalis; alone, 10 wild-type strains): 4 to 8 µg/mL (≈ 11.4 to 22.9 µM) | MIC (Group C streptococcus [4]; [16]): 64 µg/mL (≈ 183 µM) | MIC (Group C streptococcus [4]; LiF 1 mg/l): 8 µg/mL (≈ 22.9 µM) | MIC (Group C streptococcus [4]; [17]): 256 µg/mL (≈ 733 µM) | MIC (Group C streptococcus [4]; alone): 32 µg/mL (≈ 91.6 µM) | MIC (Entrococcus faecium; LiF 5 mg/l): 64 µg/mL (≈ 183 µM) | MIC (Entrococcus faecium; alone): > 128 µg/mL | MIC (Staphylococcus aureus [5]; [16]): 32 µg/mL (≈ 91.6 µM) | MIC (Staphylococcus aureus [5]; LiF 1 mg/l, resistant to ampicillin, 10 strains): 64 µg/mL (≈ 183 µM) | MIC (Staphylococcus aureus [5]; LiF 6 mg/l, resistant to ampicillin, strains producing beta-lactamase): 64 µg/mL (≈ 183 µM) | MIC (Staphylococcus aureus [5]; [17]): > 128 µg/mL | MIC (Staphylococcus aureus [5]; alone, resistant to ampicillin, 10 strains): > 128 µg/mL | MIC (Staphylococcus aureus [5]; alone, resistant to ampicillin, strains producing beta-lactamase): > 128 µg/mL

CN(C)C1C(=O)C(C(N)=O)=C(O)C2(O)C(=O)C3=C(O)c4c(O)cccc4C(C)(O)C3CC12 (centres unmarked) [TETRACYCLINE, tetracycline]
MIC (Staphylococcus aureus [6]): 32 µg/mL (≈ 72 µM) | MIC (Haemophilus influenzae [7]; [18]): 4 to 8 µg/mL (≈ 9 to 18 µM) | MIC (Haemophilus influenzae [7]; read-out: 100% inhibitory concentration, in the presence of LiF 4 ppm): 2 to 4 µg/mL | MIC A/B (Staphylococcus aureus [8]): 4 µg/mL | MIC (Klebsiella pneumoniae [9]): 512 µg/mL (≈ 1150 µM) | MIC (Klebsiella pneumoniae [10]; [18]): 0.5 µg/mL (≈ 1.13 µM) | MIC (Klebsiella pneumoniae [10]; read-out: 100% inhibitory concentration, in the presence of LiF 2 ppm): 0.25 µg/mL

POLYMIXIN B
100% inhibitory concentration (Staphylococcus aureus [11]; alone): > 128 ppm | 100% inhibitory concentration (Staphylococcus aureus [11]; in the presence of LiF 2 ppm): 64 ppm | 100% inhibitory concentration (Group C streptococcus [12]; alone): > 128 ppm | 100% inhibitory concentration (Group C streptococcus [12]; in the presence of LiF 8 ppm): 64 ppm | 100% inhibitory concentration (Escherichia coli [13]; alone): > 128 ppm | 100% inhibitory concentration (Escherichia coli [13]; in the presence of LiF 2 ppm): 64 ppm

CC1(C)S[C@@H]2[C@H](NC(=O)Cc3ccccc3)C(=O)N2[C@H]1C(=O)O [penicilline group G]
phenotype in presence of Fli (streptococcus group F): the insensible phenotype was not changed

C[C@H]1c2cccc(O)c2C(=O)C2=C(O)[C@]3(O)C(=O)C(C(N)=O)=C(O)[C@@H](N(C)C)[C@@H]3[C@@H](O)[C@@H]21 [DOXYCYCLINE, doxycycline]
inhibition diameter ([14]; J0, day before the first administration, healthy patient, plasma): 7 mm | inhibition diameter ([14]; J1, day of the first administration, 2 capsules each day, blood 3 hours after administration): 8-9 mm | inhibition diameter ([14]; J3, third day of administration, 2 capsules each day, blood 3 hours after administration): 11-12 mm | MIC (Pseudomonas aeruginosa [15]): 1000 µg/mL
